Data from PMC8550792, “Evolution of kinase polypharmacology across HSP90 drug discovery” (Cell Chemical Biology, 2021).

Experiments:
Test in all cases: biochemical
Type in all cases: biochemical
382 unique human kinases [1] = biological target: T1, 382 unique human kinases (Homo sapiens, UniProt P10721, D820E); settings: c-Kit (D820E), 10 uM; for remaining activity at 10 µM: read-out: % Enzyme Activity (relative to DMSO controls)
T1 construct: purchased Reaction Biology (HotSpot contract assay)

382 unique human kinases [2] = biological target: T2, 382 unique human kinases (Homo sapiens, UniProt P21802, R612T); settings: FGFR2 (R612T), 10 uM; for remaining activity at 10 µM: read-out: % Enzyme Activity (relative to DMSO controls)
T2 construct: purchased Reaction Biology (HotSpot contract assay)

382 unique human kinases [3] = biological target: T3, 382 unique human kinases (Homo sapiens, UniProt P51812); settings: RSK2, 10 uM; for remaining activity at 10 µM: read-out: % Enzyme Activity (relative to DMSO controls)
T3 construct: purchased Reaction Biology (HotSpot contract assay)

382 unique human kinases [4] = biological target: T4, 382 unique human kinases (Homo sapiens, UniProt Q96PF2); settings: kinase TSSK2, compound 10 uM; for remaining activity at 10 µM: read-out: % Enzyme Activity (relative to DMSO controls)
T4 construct: purchased Reaction Biology (HotSpot contract assay)
T4 sequence (Q96PF2 1-358): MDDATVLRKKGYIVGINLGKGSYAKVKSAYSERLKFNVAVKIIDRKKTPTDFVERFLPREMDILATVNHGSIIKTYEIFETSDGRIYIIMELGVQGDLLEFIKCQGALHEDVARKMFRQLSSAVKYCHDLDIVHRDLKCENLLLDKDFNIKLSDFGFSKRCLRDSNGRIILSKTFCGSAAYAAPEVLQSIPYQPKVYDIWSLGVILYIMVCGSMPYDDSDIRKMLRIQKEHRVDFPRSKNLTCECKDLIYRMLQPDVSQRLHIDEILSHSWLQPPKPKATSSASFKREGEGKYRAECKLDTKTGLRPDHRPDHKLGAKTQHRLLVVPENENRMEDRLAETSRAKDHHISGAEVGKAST

382 unique human kinases [5] = biological target: T5, 382 unique human kinases (Homo sapiens, UniProt Q96QT4); settings: kinase TRPM7/CHAK1, compound 10 uM; for remaining activity at 10 µM: read-out: % Enzyme Activity (relative to DMSO controls)
T5 construct: purchased Reaction Biology (HotSpot contract assay)

382 unique human kinases [6] = biological target: T6, 382 unique human kinases (Homo sapiens, UniProt P00519, G250E); settings: ABL1 (G250E), [ATP] 10 µM, compound 10 uM; for remaining activity at 10 µM: read-out: % Enzyme Activity (relative to DMSO controls)
T6 construct: purchased Reaction Biology (HotSpot contract assay)

382 unique human kinases [7] = biological target: T7, 382 unique human kinases (Homo sapiens, UniProt P05771); settings: PKCb1, 10 uM; for remaining activity at 10 µM: read-out: % Enzyme Activity (relative to DMSO controls)
T7 construct: purchased Reaction Biology (HotSpot contract assay)

382 unique human kinases [8] = biological target: T8, 382 unique human kinases (Homo sapiens, UniProt P06239); settings: LCK, [ATP] 15 µM
T8 construct: purchased Reaction Biology (HotSpot contract assay)

382 unique human kinases [9] = biological target: T9, 382 unique human kinases (Homo sapiens, UniProt P27361); settings: ERK1, 10 uM; for remaining activity at 10 µM: read-out: % Enzyme Activity (relative to DMSO controls)
T9 construct: purchased Reaction Biology (HotSpot contract assay)

382 unique human kinases [10] = biological target: T10, 382 unique human kinases (Homo sapiens, UniProt Q04912); settings: RON/MST1R, 10 uM; for remaining activity at 10 µM: read-out: % Enzyme Activity (relative to DMSO controls)
T10 construct: purchased Reaction Biology (HotSpot contract assay)

382 unique human kinases [11] = biological target: T11, 382 unique human kinases (Homo sapiens, UniProt Q09013); settings: DMPK, 10 uM; for remaining activity at 10 µM: read-out: % Enzyme Activity (relative to DMSO controls)
T11 construct: purchased Reaction Biology (HotSpot contract assay)
T11 sequence (Q09013 1-629): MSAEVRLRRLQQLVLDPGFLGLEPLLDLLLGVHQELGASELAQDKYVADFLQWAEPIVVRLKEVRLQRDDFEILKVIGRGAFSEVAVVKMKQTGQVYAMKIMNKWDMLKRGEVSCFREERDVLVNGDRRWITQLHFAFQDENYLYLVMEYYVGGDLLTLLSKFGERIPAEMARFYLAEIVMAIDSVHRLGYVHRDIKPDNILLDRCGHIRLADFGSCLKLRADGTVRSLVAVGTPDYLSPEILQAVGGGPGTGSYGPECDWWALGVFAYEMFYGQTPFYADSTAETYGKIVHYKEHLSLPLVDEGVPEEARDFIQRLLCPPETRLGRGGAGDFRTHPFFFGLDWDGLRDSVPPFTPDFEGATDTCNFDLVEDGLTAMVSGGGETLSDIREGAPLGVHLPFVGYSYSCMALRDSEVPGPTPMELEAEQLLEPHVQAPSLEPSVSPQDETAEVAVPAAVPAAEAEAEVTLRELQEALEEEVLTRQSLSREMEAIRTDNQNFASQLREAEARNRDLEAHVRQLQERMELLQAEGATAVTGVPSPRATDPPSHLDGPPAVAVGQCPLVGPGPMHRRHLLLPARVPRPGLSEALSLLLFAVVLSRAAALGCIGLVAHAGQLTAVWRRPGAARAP

382 unique human kinases [12] = biological target: T12, 382 unique human kinases (Homo sapiens, UniProt Q15746); settings: MLCK/MYLK, [ATP] 30 µM, compound 10 uM; for remaining activity at 10 µM: read-out: % Enzyme Activity (relative to DMSO controls)
T12 construct: purchased Reaction Biology (HotSpot contract assay)

382 unique human kinases [13] = biological target: T13, 382 unique human kinases (Homo sapiens, UniProt Q16288); settings: TRKC, [ATP] 100 µM
T13 construct: purchased Reaction Biology (HotSpot contract assay)

382 unique human kinases [14] = biological target: T14, 382 unique human kinases (Homo sapiens, UniProt Q16654); settings: PDK4/PDKH4, [ATP] 30 µM
T14 construct: purchased Reaction Biology (HotSpot contract assay)

382 unique human kinases [15] = biological target: T15, 382 unique human kinases (Homo sapiens, UniProt Q52WX2); settings: SBK1, 10 uM; for remaining activity at 10 µM: read-out: % Enzyme Activity (relative to DMSO controls)
T15 construct: purchased Reaction Biology (HotSpot contract assay)

382 unique human kinases [16] = biological target: T16, 382 unique human kinases (Homo sapiens, UniProt Q9UK32); settings: RSK4, [ATP] 30 µM, compound 10 uM; for remaining activity at 10 µM: read-out: % Enzyme Activity (relative to DMSO controls)
T16 construct: purchased Reaction Biology (HotSpot contract assay)

382 unique human kinases [17] = biological target: T17, 382 unique human kinases (Homo sapiens, UniProt Q9UM73, G1202R); settings: ALK (G1202R), [ATP] 20 µM, compound 10 uM; for remaining activity at 10 µM: read-out: % Enzyme Activity (relative to DMSO controls)
T17 construct: purchased Reaction Biology (HotSpot contract assay)

[18] = compound 10 uM, read-out: % Enzyme Activity (relative to DMSO controls)
[19] = compound 1 uM, read-out: % Enzyme Activity (relative to DMSO controls)

T3 sequence (P51812 whole entry): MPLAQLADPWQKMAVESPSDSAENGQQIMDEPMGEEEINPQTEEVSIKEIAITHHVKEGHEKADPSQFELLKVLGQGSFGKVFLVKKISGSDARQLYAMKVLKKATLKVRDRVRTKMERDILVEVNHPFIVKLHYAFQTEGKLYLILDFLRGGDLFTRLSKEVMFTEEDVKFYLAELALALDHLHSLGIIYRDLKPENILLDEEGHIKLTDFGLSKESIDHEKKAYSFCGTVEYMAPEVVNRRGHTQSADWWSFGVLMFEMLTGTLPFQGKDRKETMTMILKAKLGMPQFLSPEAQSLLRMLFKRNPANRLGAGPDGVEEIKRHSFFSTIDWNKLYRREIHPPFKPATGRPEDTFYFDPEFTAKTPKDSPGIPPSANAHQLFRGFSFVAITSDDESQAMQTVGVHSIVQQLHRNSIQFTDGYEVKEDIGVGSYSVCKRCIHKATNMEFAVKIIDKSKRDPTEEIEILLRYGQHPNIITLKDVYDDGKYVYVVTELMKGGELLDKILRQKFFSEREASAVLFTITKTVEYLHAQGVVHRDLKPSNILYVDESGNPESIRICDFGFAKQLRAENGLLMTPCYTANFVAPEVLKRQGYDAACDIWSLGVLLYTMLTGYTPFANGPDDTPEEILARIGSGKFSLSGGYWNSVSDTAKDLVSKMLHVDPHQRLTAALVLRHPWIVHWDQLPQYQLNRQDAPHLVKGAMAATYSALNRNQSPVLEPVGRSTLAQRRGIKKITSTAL
T17 sequence (Q9UM73 19-1620 G1202R): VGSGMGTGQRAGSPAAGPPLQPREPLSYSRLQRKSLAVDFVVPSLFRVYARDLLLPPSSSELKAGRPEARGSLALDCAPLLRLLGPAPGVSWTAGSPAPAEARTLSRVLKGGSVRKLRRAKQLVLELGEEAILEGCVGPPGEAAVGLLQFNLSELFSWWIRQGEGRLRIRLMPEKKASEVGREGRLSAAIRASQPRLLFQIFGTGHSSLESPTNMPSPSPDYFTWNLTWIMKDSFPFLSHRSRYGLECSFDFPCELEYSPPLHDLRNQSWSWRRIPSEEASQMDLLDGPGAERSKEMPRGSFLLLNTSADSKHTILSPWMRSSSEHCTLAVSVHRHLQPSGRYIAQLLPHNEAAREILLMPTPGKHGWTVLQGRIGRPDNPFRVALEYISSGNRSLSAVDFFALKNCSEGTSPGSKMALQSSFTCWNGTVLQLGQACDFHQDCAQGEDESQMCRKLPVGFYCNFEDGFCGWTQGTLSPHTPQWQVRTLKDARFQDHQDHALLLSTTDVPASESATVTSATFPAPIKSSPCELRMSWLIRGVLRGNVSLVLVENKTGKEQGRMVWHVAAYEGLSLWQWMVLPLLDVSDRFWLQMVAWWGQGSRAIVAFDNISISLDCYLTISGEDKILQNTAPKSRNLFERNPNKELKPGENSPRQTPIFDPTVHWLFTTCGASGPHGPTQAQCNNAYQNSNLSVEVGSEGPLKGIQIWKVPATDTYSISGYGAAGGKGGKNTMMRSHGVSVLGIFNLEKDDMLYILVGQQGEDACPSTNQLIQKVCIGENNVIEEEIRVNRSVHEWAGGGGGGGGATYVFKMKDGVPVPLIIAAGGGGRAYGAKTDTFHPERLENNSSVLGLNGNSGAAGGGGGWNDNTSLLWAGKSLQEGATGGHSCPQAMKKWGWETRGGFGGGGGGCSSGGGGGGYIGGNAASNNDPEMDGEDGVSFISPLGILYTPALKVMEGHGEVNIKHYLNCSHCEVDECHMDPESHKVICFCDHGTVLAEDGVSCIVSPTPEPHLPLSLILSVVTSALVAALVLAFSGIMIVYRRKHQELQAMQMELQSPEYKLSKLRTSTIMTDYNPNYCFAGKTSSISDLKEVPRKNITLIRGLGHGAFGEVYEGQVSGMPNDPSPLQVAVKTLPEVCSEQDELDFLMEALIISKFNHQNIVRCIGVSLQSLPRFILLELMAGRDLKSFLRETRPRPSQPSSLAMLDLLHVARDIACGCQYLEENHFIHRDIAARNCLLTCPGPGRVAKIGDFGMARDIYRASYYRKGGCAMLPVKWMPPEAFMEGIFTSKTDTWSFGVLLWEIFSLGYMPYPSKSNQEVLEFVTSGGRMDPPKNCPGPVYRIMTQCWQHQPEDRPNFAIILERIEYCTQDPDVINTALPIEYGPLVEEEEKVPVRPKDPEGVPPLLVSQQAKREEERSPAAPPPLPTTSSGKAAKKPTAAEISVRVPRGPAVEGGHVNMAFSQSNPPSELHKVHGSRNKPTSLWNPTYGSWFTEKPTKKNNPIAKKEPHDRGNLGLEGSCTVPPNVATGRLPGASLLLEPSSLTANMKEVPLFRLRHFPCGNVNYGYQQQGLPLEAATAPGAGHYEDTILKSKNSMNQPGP
T1 sequence (P10721 26-976 D820E): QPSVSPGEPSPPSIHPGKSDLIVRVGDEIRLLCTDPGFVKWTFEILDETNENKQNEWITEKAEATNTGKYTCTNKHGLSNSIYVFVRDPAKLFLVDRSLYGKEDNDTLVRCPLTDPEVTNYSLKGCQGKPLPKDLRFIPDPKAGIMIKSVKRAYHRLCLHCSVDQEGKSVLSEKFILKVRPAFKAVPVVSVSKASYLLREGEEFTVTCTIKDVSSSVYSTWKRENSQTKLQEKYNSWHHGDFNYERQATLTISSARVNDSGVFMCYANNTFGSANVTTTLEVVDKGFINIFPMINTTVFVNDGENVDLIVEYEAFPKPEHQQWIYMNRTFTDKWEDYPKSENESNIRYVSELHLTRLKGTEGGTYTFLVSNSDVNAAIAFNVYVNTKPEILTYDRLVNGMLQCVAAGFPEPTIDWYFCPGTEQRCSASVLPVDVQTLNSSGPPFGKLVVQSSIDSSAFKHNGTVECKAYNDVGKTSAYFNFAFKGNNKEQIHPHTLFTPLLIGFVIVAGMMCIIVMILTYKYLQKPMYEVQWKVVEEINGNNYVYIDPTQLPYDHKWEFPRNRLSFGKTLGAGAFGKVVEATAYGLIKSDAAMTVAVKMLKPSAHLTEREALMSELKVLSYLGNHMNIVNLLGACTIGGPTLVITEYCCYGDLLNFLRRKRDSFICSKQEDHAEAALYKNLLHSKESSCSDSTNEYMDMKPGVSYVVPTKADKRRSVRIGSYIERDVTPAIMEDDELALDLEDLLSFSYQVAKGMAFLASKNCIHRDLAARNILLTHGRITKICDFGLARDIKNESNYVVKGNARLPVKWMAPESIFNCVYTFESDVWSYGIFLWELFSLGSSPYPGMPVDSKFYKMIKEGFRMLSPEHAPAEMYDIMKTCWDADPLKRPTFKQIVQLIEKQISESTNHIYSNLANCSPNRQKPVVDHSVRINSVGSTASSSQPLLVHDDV
T2 sequence (P21802 22-821 R612T): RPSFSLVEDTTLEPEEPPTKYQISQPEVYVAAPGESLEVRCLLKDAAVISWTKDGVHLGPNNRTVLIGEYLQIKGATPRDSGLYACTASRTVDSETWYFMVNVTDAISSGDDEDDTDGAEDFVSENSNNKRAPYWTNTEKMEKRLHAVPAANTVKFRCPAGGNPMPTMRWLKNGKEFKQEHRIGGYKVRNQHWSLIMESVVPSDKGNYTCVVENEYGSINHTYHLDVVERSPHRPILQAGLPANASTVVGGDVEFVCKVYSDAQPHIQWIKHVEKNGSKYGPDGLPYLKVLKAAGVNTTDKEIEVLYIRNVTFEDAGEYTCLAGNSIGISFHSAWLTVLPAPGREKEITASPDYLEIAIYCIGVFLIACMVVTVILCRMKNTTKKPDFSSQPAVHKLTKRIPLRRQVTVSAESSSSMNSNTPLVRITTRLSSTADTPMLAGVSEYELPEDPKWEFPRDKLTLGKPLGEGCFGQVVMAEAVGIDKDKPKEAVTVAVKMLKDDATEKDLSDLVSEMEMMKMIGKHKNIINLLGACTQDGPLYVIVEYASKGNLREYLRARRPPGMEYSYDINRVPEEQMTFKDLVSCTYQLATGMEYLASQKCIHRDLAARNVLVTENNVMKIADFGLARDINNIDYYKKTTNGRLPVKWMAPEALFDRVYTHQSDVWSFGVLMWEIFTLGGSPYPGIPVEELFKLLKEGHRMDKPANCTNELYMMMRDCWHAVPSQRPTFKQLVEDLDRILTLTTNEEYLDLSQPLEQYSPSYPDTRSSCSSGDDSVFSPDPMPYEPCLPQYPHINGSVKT
T16 sequence (Q9UK32 whole entry): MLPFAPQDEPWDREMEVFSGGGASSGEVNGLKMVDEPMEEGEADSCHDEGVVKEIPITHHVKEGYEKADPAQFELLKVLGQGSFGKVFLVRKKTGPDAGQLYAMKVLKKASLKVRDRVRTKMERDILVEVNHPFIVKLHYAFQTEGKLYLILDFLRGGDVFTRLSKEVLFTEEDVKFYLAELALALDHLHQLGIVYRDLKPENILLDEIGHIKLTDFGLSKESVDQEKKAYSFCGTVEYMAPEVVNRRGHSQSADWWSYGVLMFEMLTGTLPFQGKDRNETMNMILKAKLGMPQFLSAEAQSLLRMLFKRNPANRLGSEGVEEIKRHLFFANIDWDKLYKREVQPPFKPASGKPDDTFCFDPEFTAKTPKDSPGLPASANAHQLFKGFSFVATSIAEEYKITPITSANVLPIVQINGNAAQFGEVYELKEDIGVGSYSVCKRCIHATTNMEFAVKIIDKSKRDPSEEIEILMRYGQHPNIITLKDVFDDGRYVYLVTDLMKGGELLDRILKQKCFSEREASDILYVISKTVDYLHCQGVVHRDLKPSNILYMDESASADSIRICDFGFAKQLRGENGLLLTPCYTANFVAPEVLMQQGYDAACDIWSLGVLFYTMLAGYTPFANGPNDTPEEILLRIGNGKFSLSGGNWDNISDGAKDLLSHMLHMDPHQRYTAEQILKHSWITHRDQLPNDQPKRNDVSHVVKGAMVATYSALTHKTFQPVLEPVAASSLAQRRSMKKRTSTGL

SMILES	remaining activity at 10 µM (382 unique human kinases [1]) [%]	remaining activity at 10 µM (382 unique human kinases [2]) [%]	remaining activity at 10 µM (382 unique human kinases [3]) [%]	remaining activity at 10 µM (382 unique human kinases [4]) [%]	remaining activity at 10 µM (382 unique human kinases [5]) [%]	remaining activity at 10 µM (382 unique human kinases [6]) [%]	remaining activity at 10 µM (382 unique human kinases [7]) [%]	remaining activity at 10 µM (382 unique human kinases [8]; [18]) [%]	remaining activity at 10 µM (382 unique human kinases [9]) [%]	remaining activity at 10 µM (382 unique human kinases [10]) [%]	remaining activity at 10 µM (382 unique human kinases [11]) [%]	remaining activity at 10 µM (382 unique human kinases [12]) [%]	remaining activity at 10 µM (382 unique human kinases [13]; [18]) [%]	remaining activity at 10 µM (382 unique human kinases [14]; [18]) [%]	remaining activity at 10 µM (382 unique human kinases [15]) [%]	remaining activity at 10 µM (382 unique human kinases [16]) [%]	remaining activity at 10 µM (382 unique human kinases [17]) [%]	further results
CC(C)c1cc(-c2n[nH]c(=O)n2-c2ccc3c(ccn3C)c2)c(O)cc1O [Ganetespib (STA9090)]	72.5	68.6	78.8	90.3	92.2	–	–	–	–	–	–	–	–	–	–	–	–	–
CCNC(=O)c1noc(-c2cc(C(C)C)c(O)cc2O)c1-c1ccc(CN2CCOCC2)cc1 [Luminespib]	–	–	–	–	–	5.9	93.8	61	96.1	100	100	97.5	96.8	29.9	94.6	96	104	% Enzyme Activity (relative to DMSO controls) (382 unique human kinases [6]): 5.81%; % Enzyme Activity (relative to DMSO controls) (382 unique human kinases [7]): 93.07%; % Enzyme Activity (relative to DMSO controls) (382 unique human kinases [8]; compound 10 uM): 58.73%; % Enzyme Activity (relative to DMSO controls) (382 unique human kinases [9]): 95.87%; % Enzyme Activity (relative to DMSO controls) (382 unique human kinases [10]): 94.46%; % Enzyme Activity (relative to DMSO controls) (382 unique human kinases [11]): 99.26%; % Enzyme Activity (relative to DMSO controls) (382 unique human kinases [12]): 95.43%; % Enzyme Activity (relative to DMSO controls) (382 unique human kinases [13]; compound 10 uM): 94.48%; % Enzyme Activity (relative to DMSO controls) (382 unique human kinases [14]; compound 10 uM): 27.75%; % Enzyme Activity (relative to DMSO controls) (382 unique human kinases [15]): 93.40%; % Enzyme Activity (relative to DMSO controls) (382 unique human kinases [16]): 94.35%; % Enzyme Activity (relative to DMSO controls) (382 unique human kinases [17]): 100.40%
CCNC(=O)c1noc(-c2cc(C(C)C)c(O)cc2O)c1-c1ccc(CN2CCOCC2)cc1 [Luminespib (AUY-922)]	88.4	114	93.5	102	101	–	–	–	–	–	–	–	–	–	–	–	–	% Enzyme Activity (relative to DMSO controls) (382 unique human kinases [1]): 88.12%; % Enzyme Activity (relative to DMSO controls) (382 unique human kinases [2]): 112.07%; % Enzyme Activity (relative to DMSO controls) (382 unique human kinases [3]): 92.24%; % Enzyme Activity (relative to DMSO controls) (382 unique human kinases [4]): 101.80%; % Enzyme Activity (relative to DMSO controls) (382 unique human kinases [5]): 98.95%
CC(C)c1cc(-c2n[nH]c(=O)n2-c2ccc3c(ccn3C)c2)c(O)cc1O [Ganetespib]	–	–	–	–	–	5.88	109	13.9	101	106	110	38.6	7.62	6.83	99.8	27.5	52.8	remaining activity at 1 µM (382 unique human kinases [8]; [19]): 49.3%; remaining activity at 1 µM (382 unique human kinases [13]; [19]): 30.6%; remaining activity at 1 µM (382 unique human kinases [14]; [19]): 26.8%
